Results published in patent US12643899B2, “Antiviral agents, uses thereof and methods for their preparation” (The University of British Columbia, priority 2020, dated 2026).

What was measured:
[1] = test system: ZIKV; assay: NS1 and dsRNA in ZIKV-infected brain organoids; format: cell-based, Zika virus; details: 10 μM, 69 hours, MOI 1
Experimental: FIG. 17 is a schematic showing the general method 20 used in Example 6. Referring to FIG. 17, following growth of the brain organoids in STEMdiff™ media 22 (4 organoids/well), the media was aspirated 24. Then, 500 μL ZIKV at the desired MOI in fresh media was added 26 and the brain organoids incubated at 37° C. for 3 hours with gentle shaking 28. The brain organoids were then washed with 2×1 mL PBS 30, and fresh media and CA or cladoniamide C (CC) added to the desired concentration 32 prior to incubation for the desired time at 37° C. 34. The supernatant was collected and frozen at −86° C. 36 prior to analysis and the brain organoids transferred to an Eppendorf with paraformaldehyde for electron microscopy 38.
FIG. 18 is a plot showing the anti-ZIKV activity of cladoniamide A (incubation with 1 μM CA for 72 hours; 2 biological replicates, each with 4 organoids/well) using four brain organoid systems. There was a greater than 4-log reduction in extracellular ZIKV titer when treated with CA. […] FIGS. 20 and 21 show plots showing the anti-ZIKV activity of CA and CC (incubation with 10 μM CA or CC for 69 hours, MOI 1; 4 technical replicates as there were 4 organoids/[…]).

[2] = test system: ZIKV; assay: ZIKV infectivity by semisolid overlay plaque assay after pre-treatment of A549 and U87 MG cells; format: cell-based, Zika virus; details: CD 15 μM, A549 and U87 MG cells, FIG. 3
[3] = test system: ZIKV; assay: ZIKV viral dsRNA imaging (Cellomics ArrayScan VTI) in A549 cells; format: cell-based, Zika virus; details: 15 μM, 1 h pre-treatment, MOI 1, 48 h
[4] = test system: DENV; assay: Activity against DENV (summary statement, method not described); format: cell-based, dengue virus
[5] = test system: SARS-CoV-2; assay: SARS-CoV-2 intracellular viral RNA and nucleocapsid protein in Caco-2 cells; format: cell-based; details: Human Caco-2 cells, 3 hours pre-treatment
[6] = test system: A549 cells; assay: MTS cytotoxicity assay in A549 cells; format: cell-based, human; details: 48 h
Experimental: An MTS assay was performed to determine the cytotoxicity concentration 50% (CC50) of cladoniamide A (CA) in human A549 cells, a cell line from human lung carcinoma. Various concentrations of CA were added to cultured A549 cells and incubated (37° C., 5% CO2) for 48 h. Cell viability was then measured by an MTS assay kit (CellTiter 96™ Aqueous One Solution cell proliferation assay, Promega) according to the manufacturer's instructions. Curve fitting was performed in Igor Pro (WaveMetrics) using a hyperbolic fit algorithm (FIG. 1). The CC50 of CA in A549 cells was determined to be 54±5 μM. An MTS assay was also performed to determine the CC50 of CA in human U87 MG cells, a cell line from human brain. Various concentrations of CA were added to cultured U87 MG cells and incubated (37° C., 5% CO2) for 48 h. Cell viability was then measured by an MTS assay kit (CellTiter 96 Aqueous One Solution cell proliferation assay, Promega) according to the manufacturer's instructions. Curve fitting was performed in Igor Pro (WaveMetrics) using a hyperbolic fit algorithm (FIG. 2).

[7] = test system: ZIKV; assay: Secreted NS1 (sNS1) ELISA, ZIKV-infected A549 cells; format: cell-based, Zika virus; details: 24 h pre-treatment, MOI 1.0, 2 d
Experimental: Error bars represent SD among 2 biological replicates.
Cultured A549 cells were treated with various concentrations of CA or PF-429242 for 24 h before being washed with PBS and inoculated with ZIKV (ZIKV strain VR 1843, Puerto Rico, 2015; ATCC) at MOI 1.0 for 1 h. Following the removal of the inoculum, cells were incubated in fresh media for 2 d before the supernatant was collected, clarified, and secreted NS1 protein abundance was measured by an ELISA kit (BioFront Technologies) according to the manufacturer's instructions. Curve fitting was performed in Igor Pro (WaveMetrics) using a hyperbolic fit algorithm (FIG. 4; upper and middle plots) and IC50 and TI values obtained. IC50 and TI values were also obtained for CA via plaque assay (PFU; FIG. 4, lower plot). FIG. 4 (upper plot) is an ED50 curve for the PF inhibitor based on the detection of secreted Non-Structural protein 1 (sNS1), secreted viral biomarker. sNS1 was detected using an Elisa test (commercially available). FIG. 4 (middle plot) is an ED50 curve for CA based on the detection of secreted Non-Structural protein 1 (sNS1), secreted viral biomarker. sNS1 was detected using an Elisa test (commercially available).

With `COc1c2n(c3ccccc13)[C@]1(O)C(=O)N(C)C(=O)[C@]1(O)c1c-2[nH]c2ccccc12` [CC, (11S,15R)-11,15-dihydroxy-23-methoxy-13-methyl-3,13,16-triazahexacyclo[14.7.0.0^2,10.0^4,9.0^11,15.0^17,22]tricosa-1(23),2(10),4,6,8,17,19,21-octaene-12,14-dione] the “anti-ZIKV activity in brain organoids (NS1, dsRNA)” value [1] was “showed anti-ZIKV activity”.
In the case of `CNC(=O)[C@]1(O)C(=O)c2c([nH]c3ccc(Cl)cc23)-c2c(OC)c3ccccc3n21` [CD, (12R)-7-chloro-12-hydroxy-20-methoxy-N-methyl-11-oxo-3,13-diazapentacyclo[11.7.0.0^2,10.0^4,9.0^14,19]icosa-1(20),2(10),4(9),5,7,14,16,18-octaene-12-carboxamide], the “inhibitory effect on production of infectious ZIKV virions” value [2] is reported as “did not show any inhibitory effect”, the “activity against ZIKV (viral dsRNA)” value [3] is reported as “did not show any inhibitory effect” and the “activity against DENV” value [4] is reported as “no activity”. The “antiviral effect against SARS-CoV-2” value [5] was “no antiviral effect”.
`CNC(=O)[C@]1(O)C(=O)c2c([nH]c3ccc(Cl)cc23)-c2c(OC)c3cc(Cl)ccc3n21` [CE, (12R)-7,17-dichloro-12-hydroxy-20-methoxy-N-methyl-11-oxo-3,13-diazapentacyclo[11.7.0.0^2,10.0^4,9.0^14,19]icosa-1(20),2(10),4(9),5,7,14(19),15,17-octaene-12-carboxamide] was tested, and the “activity against ZIKV (viral dsRNA)” value [3] was “did not show any inhibitory effect”.
In the case of `CNC(=O)[C@@]1(O)C(=O)n2c(c(OC)c3ccccc32)-c2[nH]c3ccc(Cl)cc3c21` [CF, (11R)-7-chloro-11-hydroxy-20-methoxy-N-methyl-12-oxo-3,13-diazapentacyclo[11.7.0.0^2,10.0^4,9.0^14,19]icosa-1(20),2(10),4(9),5,7,14,16,18-octaene-11-carboxamide], the “activity against ZIKV (viral dsRNA)” value [3] is reported as “did not show any inhibitory effect”.
Work on `CCN(CC)Cc1ccc(C(=O)N(CCc2ccccc2OC)[C@@H]2CCNC2)cc1` [PF, PF-429242, reference compound] yielded a CC50 [6] of 69 µM and an IC50 [7] of 13 µM.
